Read-outs that look alike come from different tables or passages of the source.
Columns and labels:
C1b domain of human PKCδ = target: T1, C1b domain of human PKCδ (Homo sapiens, UniProt Q05655); test: Competitive 3H-PDBu binding to C1b domain of PKCδ; details: Ki PKCδ, 3H-PDBu competition
T1 construct: Genes encoding C1b domains of human PKCα, δ, ε, θ, and PKD1 (PKCμ) were synthesized; made in house; host or cells: E. coli BL21(DE3)
Procedure, shortened: (§1)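 Ki derived by Cheng-Prusoff from IC50, with each protein batch's measured ^3H-PDBu Kd. Displacement of ^3H-PDBu from E. coli-produced GST-fused C1b domains or full-length human PKC was run 10 min at 37°C plus 20 min on ice, with filter capture and scintillation counting.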

C1b domain of human PKCα = target: T2, C1b domain of human PKCα (Homo sapiens, UniProt P17252); test: biochemical; assay type: binding; details: 3H-PDBu competition; for Ki: Ki PKCα
T2 construct: Genes encoding C1b domains of human PKCα, δ, ε, θ, and PKD1 (PKCμ) were synthesized; made in house; host or cells: E. coli BL21(DE3)
Procedure, shortened: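 Competitive binding against 3H-PDBu tracer used recombinant GST-C1b fusion protein expressed in E. coli. Incubation ran 10 min at 37°C with shaking, then 20 min on ice, followed by filtration and scintillation counting of trapped 3H-PDBu. Affinity was derived using each protein preparation's experimentally determined Kd for 3H-PDBu.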

[1] = target: T3, C1b domain of human PKD1 (PKCμ) (Homo sapiens, UniProt Q15139); test: biochemical; assay type: binding
T3 construct: Genes encoding C1b domains of human PKCα, δ, ε, θ, and PKD1 (PKCμ) were synthesized; made in house; host or cells: E. coli BL21(DE3)
T3 sequence (Q15139 270-320 limits assumed): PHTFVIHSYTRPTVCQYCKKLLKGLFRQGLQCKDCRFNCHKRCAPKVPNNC
Procedure, shortened: as §1

[2] = system: phosphorylation of PKCμ, PKCδ and Erk1/2 in A549 lung cancer cells; assay type: cell-based; details: 30 minutes
Protocol: Cells were then treated with different drugs at indicated concentrations for 30 minutes. […] Imagequant LAS4000 (GE) was used to scan membranes if secondary antibodies anti-mouse IgG HRP conjugate or anti-rabbit IgG HRP conjugate (dilutions from 1:2000-1:10000) were used. For ProteinSimple Wes system, manufacture's procedure was followed (ProteinSimple 12-230 kDa Wes Separation Module) for sample preparation, loading, running, and data analysis.
Phosphorylation of these sites has been linked to acute activation or catalytic activity of the PKC isoforms and Erk1/2. High level of phosphorylation indicates strong activation.

[3] = system: A549 non-small cell lung cancer cell line; test: Proliferation of A549 (CellTiter Glo); assay type: cell-based; details: Homo sapiens, A549, 96 h, read-out: IC50 μM (A549 Cell Line)
Procedure, shortened: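 Luminescent CellTiter Glo read-out after 96 h compound exposure of A549 cells plated at 1,000/well and rested 24 h at 37° C; DMSO kept ≤0.25%, dilutions 3-fold. Inhibition taken relative to DMSO-treated wells; IC50, relative IC50 and top inhibition derived by curve fitting.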

[4] = system: HL-60 (Leukemia) cell line; test: Proliferation of HL-60; assay type: cell-based; details: for ratio of (IC50 of K01)/(IC50 of compound), HL-60: value in parenthesis; for IC50: Homo sapiens, HL-60, read-out: IC50 in μM HL-60 (Leukemia)
Protocol: (§2) The diterpenoid compounds were tested in A549, a non-small cell lung cancer cell line harboring a K-Ras activating mutation. Briefly, A549 cells at a density of 1,000 cells/well were seeded in 96-well plates and incubated at 37° C. for 24 hours. A series of different concentrations of compound stocks (500×) were prepared by 3-fold serial dilution in DMSO. These compounds were further diluted in culture media and then added to cells so that the final DMSO concentration was not exceeding 0.25%. After 96 hours of incubation, 50 μL of CellTiter Glo reagent (Promega) was added to each well and luminescence was measured after 10 minutes using EnVision (PerkinElmer). Luminescence from cells treated with DMSO alone was set as Max and % of inhibition was calculated as follows: Inhibition %=(Max−Sample value)/Max×100. Data was analyzed using XL-fit software (ID Business Solutions Ltd.) and IC50, relative IC50, and % of top inhibition was calculated. Some of the compounds in this disclosure were very potent in blocking proliferation of A549 lung cancer cells at low nM range. In addition, potency of inhibiting A549 proliferation correlated well with its binding affinity to PKCs for this series of compounds. In other words, higher affinity binders had stronger inhibitory effects on A549 proliferation. This further support the notion that activation, rather than inhibition, of certain PKC isoforms is required to block proliferation of cancer cells, some of which may harbor K-Ras mutations. This is in sharp contrast to previous literature and common belief that inhibition of PKC is necessary to block cancer cell growth (Kang, 2014, New Journal of Science, 2014:1-36). Data presented here is in agreement with recent findings that many loss-of-function but not gain-of-function mutations of PKC isoforms have been identified in many human cancers (Antal et al., 2015, Cell, 160:489-502).
(§3) The compounds in this disclosure were tested for their potency in blocking proliferation of a few other cancer cells lines, including K-Ras mutant pancreatic cell lines Panc2.13 and KP-4, leukemia cell line HL-60, and lymphoma cell lines Namalwa and Mino. Similar procedures as in Example 67 were followed. Initial cell numbers seeded in 96-well plates were different for different cell lines: 3000 cells/well for Panc2.13; 800-1000 cells/well for KP-4; 5000 cells/well for HL-60; 5000-10000 cells/well for Namalwa and Mino. A ratio ratio of (IC50 of K01)/(IC50 of compound) (data in parenthesis in Table 5) was used to normalize the compound potency from different assay batches to a common comparator […].

[5] = system: Namalwa (Lymphoma) cell line; test: Proliferation of Namalwa; assay type: cell-based; details: for ratio of (IC50 of K01)/(IC50 of compound), Namalwa: value in parenthesis; for IC50: read-out: IC50 in μM Namalwa (Lymphoma)
Protocol: as §2, §3

[6] = system: Mino (Lymphoma) cell line; test: Proliferation of Mino; assay type: cell-based; details: for IC50: Homo sapiens, MINO, read-out: IC50 in μM Mino (Lymphoma); for ratio of (IC50 of K01)/(IC50 of compound), Mino: value in parenthesis
Protocol: as §2, §3

C1b domain of human PKCθ = target: T4, C1b domain of human PKCθ (Homo sapiens, UniProt Q04759); test: Competitive 3H-PDBu binding to C1b domain of PKCθ
T4 construct: Genes encoding C1b domains of human PKCα, δ, ε, θ, and PKD1 (PKCμ) were synthesized; made in house; host or cells: E. coli BL21(DE3)
T4 sequence (Q04759 231-281 limits assumed): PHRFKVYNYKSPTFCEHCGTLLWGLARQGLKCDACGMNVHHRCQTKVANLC
Protocol: (§4) Compounds described in this disclosure were tested for binding affinity to C1b domain of PKC isoforms. Compound binding affinity to C1b domain of PKC isoforms was derived from competitive binding assay using radioactive tracer ^3H-PDBu and recombinant GST-C1b or full-length of human PKC proteins based on modified procedures from Methods in Molecular Biology, vol.
(§5) Genes encoding C1b domains of human PKCα, δ, ε, θ, and PKD1 (PKCμ) were synthesized and inserted into pGEX-2TK or pGEX-4T1 vectors for expression and production of GST-C1b proteins in E. coli BL21(DE3) via IPTG induction. The target proteins were purified by glutathione sepharose 4B and followed by ion exchange chromatography if needed to achieve purity >70%. Aliquots of the purified proteins were stored at −80 degree for binding assay (storage buffer: 20 mM Tris pH 8.0, 200 mM NaCl, 10% glycerol, 1 mM DTT).
(§6) The plate was incubated at 37° C. on a shaker at 300 rpm for 10 minutes and then put on ice for 20 minutes. […] The bottom of the filter plate was sealed and 50 μL of MicroScint-20 (PerkinElmer) cocktail was added to each well. ^3H-PDBu trapped in each well was counted using PerkinElmer MicroBeta2 Reader. Data were analyzed using GraphPad Prism5 with the model “log(inhibitor) vs. response-variable slope” to fit the IC50, and then IC50 was transformed to Ki using Cheng-Prusoff equation: Ki=IC50/(1+added radio ligand/Kd). Kd is the binding affinity of each protein preparation to ^3H-PDBu, determined experimentally.

C1b domain of human PKCε = target: T5, C1b domain of human PKCε (Homo sapiens, UniProt Q02156); test: Competitive 3H-PDBu binding to C1b domain of PKCε
T5 construct: Genes encoding C1b domains of human PKCα, δ, ε, θ, and PKD1 (PKCμ) were synthesized; made in house; host or cells: E. coli BL21(DE3)
T5 sequence (Q02156 242-292 limits assumed): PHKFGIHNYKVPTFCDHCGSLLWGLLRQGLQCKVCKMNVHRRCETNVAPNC
Protocol: as §4, §5, §6

[7] = system: Panc2.13 (Pancreatic) cell line; test: Proliferation of Panc2.13; assay type: cell-based
Protocol: as §2, §3

[8] = system: KP-4 (Pancreatic) cell line; test: Proliferation of KP-4; assay type: cell-based; details: Homo sapiens, KP-4, read-out: IC50 in μM KP-4 (Pancreatic)
Protocol: as §2, §3

T1 sequence (Q05655 230-280 limits assumed): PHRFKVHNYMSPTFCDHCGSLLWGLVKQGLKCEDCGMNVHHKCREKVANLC

| Structure (SMILES) | Ki (C1b domain of human PKCδ) [nM] | Ki PKCα (C1b domain of human PKCα) | Ki [1] [nM] | phosphorylation of PKC (PKD/PKCμ), PKCδ and Erk1/2 ([2]; 0.3 μM, Western blot (FIG. 1)) | IC50 [3] [µM] | ratio of (IC50 of K01)/(IC50 of compound), HL-60 [4] | IC50 [4] [µM] | ratio of (IC50 of K01)/(IC50 of compound), Namalwa [5] | IC50 [5] [µM] | IC50 [6] [µM] | ratio of (IC50 of K01)/(IC50 of compound), Mino [6] | Ki (C1b domain of human PKCθ) [nM] | Ki (C1b domain of human PKCε) [nM] | ratio of (IC50 of K01)/(IC50 of compound), Panc2.13 ([7]; Panc2.13, value in parenthesis) | IC50 ([7]; read-out: IC50 in μM Panc2.13 (Pancreatic)) [µM] | IC50 [8] [µM] | Ki (C1b domain of human PKCα) [nM] | phosphorylation of PKC (PKD/PKCμ), PKCδ and Erk1/2 ([2]; 3 μM, Western blot) | phosphorylation of PKC (PKD/PKCμ), PKCδ and Erk1/2 ([2]; Western blot, concentration not given, compared with enantiomer K101-C1327) |
| --- | --- | --- | --- | --- | --- | --- | --- | --- | --- | --- | --- | --- | --- | --- | --- | --- | --- | --- | --- |
| CC1=C[C@H]2[C@@]3(O)[C@H](C)C[C@]4(OC(=O)CCc5ncc(-c6ccc(Cl)cc6)o5)[C@H]([C@@H]3C=C(CO)C[C@]2(O)C1=O)C4(C)C [Compound K101-C1321] | < 5 | E (E=>60 nM and ≤10 nM) | < 5 | induced high levels of phosphorylation | 0.03 to 0.06 | 5.71 | 0.06 to 0.1 | 1.15 | 0.03 to 0.06 | 0.01 to 0.03 | 5.36 | – | – | – | – | – | – | – | – |
| CC/C=C\C/C=C\C/C=C\C/C=C\C/C=C\C/C=C\CCC(=O)O[C@@]12C[C@@H](C)[C@@]3(O)[C@@H](C=C(CO)C[C@]4(O)C(=O)C(C)=C[C@@H]34)[C@@H]1C2(C)C [Compound K101-C1333] | < 5 | E (E=>60 nM and ≤10 nM) | < 5 | – | 0.001 to 0.01 | 80 | 0.001 to 0.01 | 20.9 | 0.001 to 0.01 | < 0.001 | 82.5 | < 5 | 1 to 30 | 157 | 0.001 to 0.01 | 0.001 to 0.01 | – | – | – |
| CC1=C[C@H]2[C@@]3(O)[C@H](C)C[C@]4(OC(=O)[C@H](N)Cc5ccccc5)[C@H]([C@@H]3C=C(CO)C[C@]2(O)C1=O)C4(C)C [Compound K101-C1336] | 100 to 200 | – | 30 to 60 | – | 1 to 2 | – | – | – | – | – | – | – | – | – | – | – | 2000 to 4000 | induced phosphorylation | – |
| CC1=C[C@H]2[C@@]3(O)[C@H](C)C[C@]4(OC(=O)[C@H](N)CC5CCCCC5)[C@H]([C@@H]3C=C(CO)C[C@]2(O)C1=O)C4(C)C [Compound K101-C1337] | 1 to 30 | – | 5 to 10 | – | 0.2 to 0.6 | – | – | – | – | – | – | – | – | – | – | – | 1000 to 2000 | – | induced much lower levels of phosphorylation |
